Reference: paper PMC7252214 (The Plant journal : for cell and molecular biology, 2019)

Molecular target: T1, ApKSL2 (Andrographis paniculata, UniProt A0A3G1S3U0)
T1 sequence (A0A3G1S3U0 41-814): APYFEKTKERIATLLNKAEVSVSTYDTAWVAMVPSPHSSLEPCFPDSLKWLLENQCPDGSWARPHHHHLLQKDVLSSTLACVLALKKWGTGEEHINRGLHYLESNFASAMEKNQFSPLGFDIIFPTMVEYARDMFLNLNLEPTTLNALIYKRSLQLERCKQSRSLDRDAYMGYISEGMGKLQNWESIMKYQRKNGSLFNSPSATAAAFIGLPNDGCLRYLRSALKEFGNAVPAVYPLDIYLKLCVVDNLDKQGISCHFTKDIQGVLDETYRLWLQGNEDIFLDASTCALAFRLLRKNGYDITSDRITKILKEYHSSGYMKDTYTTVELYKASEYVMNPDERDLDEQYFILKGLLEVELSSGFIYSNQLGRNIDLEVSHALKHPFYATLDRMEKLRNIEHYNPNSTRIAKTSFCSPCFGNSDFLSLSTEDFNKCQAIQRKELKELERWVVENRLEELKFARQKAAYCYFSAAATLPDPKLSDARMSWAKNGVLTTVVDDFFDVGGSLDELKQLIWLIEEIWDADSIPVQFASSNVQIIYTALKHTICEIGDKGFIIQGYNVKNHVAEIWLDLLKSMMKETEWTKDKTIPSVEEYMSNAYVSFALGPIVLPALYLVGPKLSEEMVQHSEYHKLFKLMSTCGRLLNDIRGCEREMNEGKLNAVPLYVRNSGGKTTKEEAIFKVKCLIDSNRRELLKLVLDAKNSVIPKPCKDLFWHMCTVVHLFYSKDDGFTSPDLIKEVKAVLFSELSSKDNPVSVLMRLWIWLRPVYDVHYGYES
Assay: co-expression in E. coli, GC-MS of products
Type: cell-based
Settings: E. coli engineered to produce ent-CPP; product ent-kaurene

Structure (SMILES): C=C1CC[C@@H]2C(C)(C)CCC[C@@]2(C)[C@@H]1CC/C(C)=C/COP(=O)(O)OP(=O)(O)O [ent-CPP]
- co-expression in E. coli, GC-MS of products: ApKSL2 acted on both ent-CPP, producing ent-kaurene
